Among the test systems are SF-268; SK-MEL-2; CCRF-CEM; COLO 205; SR; OVCAR-8; SW-620; LOX IMVI; SNB-75; CAKI-1; TK-10; UACC-62; HT-29; HCT-116; ACHN; 786-0; SK-MEL-28; A498.
Holding throughout (assay): NCI-60 cell line screen, 48 h

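Method: 48-hour compound exposure of cells in 96-well plates, five concentrations, linear interpolation of endpoints. The concentration for 50% growth inhibition is given as GI50.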 Active and inactive are the calls of the source. No stated cut-off is given here; in the data, active = GI50 up to about 1.1 µM and inactive = higher.

The record followed here is ChEMBL document CHEMBL1201862, “PubChem BioAssay data set” (2004).

As for `COc1ccc2c(c1)CCc1c-2nc2cc3c(cc2c1O)OCO3`, the GI50 in the test with SF-268, with SK-MEL-2, in the test with CCRF-CEM, in the test with COLO 205, in the test with SR and with OVCAR-8 was > 100 µM (inactive) throughout. The GI50 in the test with SW-620, in the test on LOX IMVI, in the test with SNB-75, in the test on CAKI-1, in the test on TK-10 and with UACC-62 was > 100 µM (inactive) throughout. The GI50 in the test with HT-29, in the test on HCT-116, with ACHN, with 786-0 and in the test on SK-MEL-28 was > 100 µM (inactive) in each case.

For `COc1cc(Nc2cnc3ccc(C(F)(F)F)cc3n2)cc(OC)c1OC`, the GI50 in the test on SF-268 was 84.5 µM (inactive); in the test with SK-MEL-2, 24.7 µM (inactive); in the test on CCRF-CEM, 24.7 µM (inactive); with COLO 205 it was 6.18 µM (inactive); with SR, > 100 µM (inactive); with OVCAR-8, > 100 µM (inactive). For the same compound, the GI50 with SW-620 is 71.8 µM (inactive); with LOX IMVI it was 4.02 µM (inactive); in the test on TK-10, 38.1 µM (inactive); in the test on HT-29 it was 12.2 µM (inactive); with HCT-116, 45.8 µM (inactive); in the test on ACHN, 9.95 µM (inactive). In addition, the values for the GI50 with 786-0 and in the test on SK-MEL-28 were 13.5 µM (inactive) and > 100 µM (inactive), respectively.

For `O=[N+]([O-])c1ccc(Cl)cc1C1SCc2nc3ccccc3n21` (configuration not stated), the GI50 in the test with SF-268 was 42.1 µM (inactive); in the test on SK-MEL-2, 62.4 µM (inactive); in the test on CCRF-CEM it was 34.8 µM (inactive); in the test with COLO 205 it was 61.1 µM (inactive); in the test on OVCAR-8, 60.8 µM (inactive); in the test with SW-620 it was 50.6 µM (inactive). The GI50 in the test with SNB-75 was 16.3 µM (inactive); in the test with CAKI-1 it was 33 µM (inactive); in the test on A498 it was 23.6 µM (inactive); in the test on TK-10, 87.5 µM (inactive); with UACC-62, 61.8 µM (inactive); in the test with HT-29 it was > 100 µM (inactive). Besides, the GI50 with HCT-116 is 38.3 µM (inactive); in the test with ACHN, 14.3 µM (inactive); in the test on 786-0 it was 53 µM (inactive); in the test with SK-MEL-28, > 100 µM (inactive).

For the compound `COc1cc2c(cc1OC)C(C(=O)c1cccc(OC)c1OC)C(=O)N(C)CC2` (configuration not stated), the GI50 in the test with SF-268, with SK-MEL-2, in the test with CCRF-CEM, in the test on COLO 205, in the test on OVCAR-8 and with SW-620 was > 100 µM (inactive) in each case. The GI50 in the test with LOX IMVI, with SNB-75, with CAKI-1, in the test on A498, in the test on TK-10 and in the test on UACC-62 was > 100 µM (inactive) in each case. For the same compound, the GI50 in the test with HT-29, in the test with HCT-116, with ACHN, with 786-0 and in the test with SK-MEL-28 was > 100 µM (inactive) throughout.

With `CC1CCSC(N(C(=O)N(C)c2ccccc2)c2ccccc2)=N1` (configuration not stated), the GI50 in the test with SF-268, in the test on SK-MEL-2, with CCRF-CEM, with COLO 205, in the test with OVCAR-8 and in the test on SW-620 was > 100 µM (inactive) throughout. For the same compound, the GI50 with LOX IMVI, with SNB-75, in the test with CAKI-1, in the test on A498, in the test on TK-10 and in the test on UACC-62 was > 100 µM (inactive) throughout. Also, the GI50 with HT-29, in the test on HCT-116, in the test with ACHN, in the test with 786-0 and with SK-MEL-28 was > 100 µM (inactive) each time.

With `Fc1cccc2cc3ccc4cccc5ccc(c12)c3c45`, the GI50 in the test with SF-268 is > 100 µM (inactive); in the test with CCRF-CEM, > 100 µM (inactive); in the test on COLO 205 it was > 100 µM (inactive); in the test with SR it was 0.0146 µM (active); with OVCAR-8, > 100 µM (inactive); in the test with SW-620 it was > 100 µM (inactive). The GI50 with LOX IMVI was > 100 µM (inactive); with SNB-75, > 100 µM (inactive); in the test on CAKI-1, > 100 µM (inactive); with A498, > 100 µM (inactive); with TK-10 it was 0.721 µM (active); with UACC-62 it was > 100 µM (inactive). Besides, the GI50 in the test with HT-29, in the test with HCT-116, with ACHN, in the test on 786-0 and with SK-MEL-28 was > 100 µM (inactive) each time.

For `NC(=O)NC1C(C(=O)O)N(Cc2ccccc2)C(=O)N1Cc1ccccc1` (configuration not stated), the GI50 in the test with SF-268, in the test on SK-MEL-2, in the test with CCRF-CEM, in the test with COLO 205, in the test on SR and in the test on OVCAR-8 was > 100 µM (inactive) in each case. Also, the GI50 in the test on SW-620, in the test on LOX IMVI, with SNB-75, with CAKI-1, with TK-10 and with UACC-62 was > 100 µM (inactive) throughout. The GI50 with HT-29, in the test on HCT-116, in the test with ACHN, in the test with 786-0 and in the test with SK-MEL-28 was > 100 µM (inactive) each time.

Consider `CC1=C(C(=O)Nc2cc(=O)n(C)c(=O)n2C)C(c2ccco2)C(C(=O)Nc2cc(=O)n(C)c(=O)n2C)=C(C)N1`, for which the GI50 in the test with SF-268, with SK-MEL-2, in the test on CCRF-CEM, with COLO 205, in the test with OVCAR-8 and in the test with SW-620 was > 100 µM (inactive) throughout. The GI50 was > 100 µM (inactive) with LOX IMVI; 44.8 µM (inactive) in the test on SNB-75; > 100 µM (inactive) in the test on CAKI-1; > 100 µM (inactive) in the test with A498; > 100 µM (inactive) in the test on TK-10; > 100 µM (inactive) in the test on HT-29. In addition, the GI50 in the test with ACHN, with 786-0 and in the test with SK-MEL-28 was > 100 µM (inactive) in each case.

For `N#C[C@H]1C(=O)C(c2nc3ccccc3[nH]2)S[C@H]1c1ccccc1` (some centres not stated), the GI50 was 38.4 µM (inactive) in the test with CCRF-CEM; 51.5 µM (inactive) in the test on COLO 205; 28.8 µM (inactive) with SR; 43.2 µM (inactive) with OVCAR-8; 32.5 µM (inactive) in the test with SW-620; 42 µM (inactive) in the test on LOX IMVI. In addition, the GI50 in the test with CAKI-1 was 38.6 µM (inactive); in the test with A498, 22.1 µM (inactive); with TK-10, 95.9 µM (inactive); with UACC-62, 15.3 µM (inactive); in the test with HT-29, 32.2 µM (inactive); in the test with HCT-116, 27.4 µM (inactive). Also, the figures for the GI50 in the test with ACHN, with 786-0 and in the test with SK-MEL-28 were 20 µM (inactive), 19.1 µM (inactive) and 54.8 µM (inactive), respectively.

In the case of `COc1cc2c(c(OC)c1)C1(CC(CC#N)C2)SCCS1` (configuration not stated), the GI50 in the test with SF-268, in the test with SK-MEL-2, in the test on CCRF-CEM, with COLO 205, in the test on OVCAR-8 and in the test with SW-620 was > 100 µM (inactive) each time. Also, the GI50 in the test with SNB-75 is 56.9 µM (inactive); in the test with CAKI-1, > 100 µM (inactive); with A498 it was > 100 µM (inactive); with TK-10, > 100 µM (inactive); in the test with UACC-62, > 100 µM (inactive); with HCT-116, > 100 µM (inactive). The GI50 in the test on ACHN, in the test with 786-0 and with SK-MEL-28 was > 100 µM (inactive) each time.

`NCCCCN(CCCN)/[N+]([O-])=N\O`: the GI50 with SF-268, with SK-MEL-2, with CCRF-CEM, in the test with COLO 205, with SR and in the test with OVCAR-8 was > 100 µM (inactive) each time. Also, the GI50 with SW-620, in the test on SNB-75, in the test on CAKI-1, in the test on UACC-62, with HT-29 and with HCT-116 was > 100 µM (inactive) in each case. In addition, the GI50 in the test on ACHN, in the test on 786-0 and in the test on SK-MEL-28 was > 100 µM (inactive) in each case.

In the case of `COc1ccc(C2CC(=O)c3c(O)cc(O)cc3O2)cc1O` (configuration not stated), the GI50 in the test on SF-268, with SK-MEL-2, in the test with CCRF-CEM, in the test with COLO 205, in the test on OVCAR-8 and in the test with SW-620 was > 100 µM (inactive) throughout. Also, the GI50 in the test on LOX IMVI is > 100 µM (inactive); in the test with SNB-75, 53.8 µM (inactive); with CAKI-1 it was > 100 µM (inactive); with A498 it was > 100 µM (inactive); in the test on TK-10, > 100 µM (inactive); in the test on UACC-62 it was > 100 µM (inactive). Also, the GI50 in the test with HT-29, with HCT-116, in the test on ACHN, in the test on 786-0 and in the test with SK-MEL-28 was > 100 µM (inactive) each time.
